Measured values taken from patent US12350269B2 (Alexion Pharmaceuticals, Inc., priority 2015, dated 2025).
Where two headings read alike, the source gives them in different places.

Columns and labels:
PKC = experiment: Healthy normal human whole blood assay: T-cell, PMA stimulation, pERK Y204 readout; assay type: cell-based
TSSK = experiment: Purified kinase assay (Millipore); assay type: biochemical; details: 300 nM ATP
primary CLL cells = experiment: Primary CLL apoptosis (propidium iodide/Annexin V, PARP cleavage); assay type: cell-based, human
Procedure: Isolated CLL cells were cultured in RPMI-1640 with 15% fetal bovine serum (Gibco, Grand Island, NY, USA), penicillin (100 IU), and streptomycin (100 μg/mL), at a density of 1×10^7 cells/mL in the presence or absence of […] CpG, 100 ng/mL CD40L, 10 ng/mL IL-4. Anti-IgM stimulation was conducted with plate-bound anti-IgM (10 μg/mL). CLL cells were stimulated with 10 ng/mL IL-6 (R&D Systems, Minneapolis, MN), to detect the phosphorylation of JAK1/JAK2 (Cell Signaling Technology, Danvers, MA) and STAT3 (Cell Signaling Technology, Danvers, MA, USA).

[1] = Phase 1 study: pharmacokinetics following oral dosing; assay type: in vivo, human
Procedure: Study initiated at 15 mg QD (once daily) and dose-escalated in a 3+3 design with a 28 day safety window. Patients received a single dose on day 1 for 72 hour PK evaluation. Continuous dosing was then initiated on day 4.
A 3+3 dose escalation study with 28-day cycles was carried out; the doses studied ranged from 15 mg to 65 mg once daily and up to 45 mg twice daily. Patients received a single dose on day 1 for 72 hour PK evaluation. Continuous dosing was initiated on day 4. 43 patients with CLL/SLL or B cell NHL were dosed. Median age was 67 years (range 23-85) and median prior therapies (tx) was 3 (range 1-8).

SYK = experiment: Healthy normal human whole blood assay: Basophil, FcεR1 stimulation, CD63 readout; assay type: cell-based
SYK and JAK signaling = experiment: Phase 1 study: whole blood PD, SYK and JAK signaling; assay type: in vivo, human
Procedure: Human Whole Blood Assays: Inhibition of SYK- and JAK-dependent and independent signaling was determined by stimulating human whole blood with various agonists against BCR and cytokine receptors. 100 μL aliquots of heparinized healthy human whole blood was stimulated as previously described (Coffey et al, J. of Pharm. and Experimental Therapeutics, 351:538-548, 2014), using an 8-point concentration curve to determine IC50's. Signaling and activation responses were determined by Fluorescence-activated cell sorting (“FACS”). For the clinical trial, whole blood samples were collected prior to and after dosing. Percent inhibition was calculated by normalizing to the pre-dose stimulation response.
Pharmacokinetics (“PK”), pharmacodynamics (“PD”), and safety were monitored. Response was assessed by standard criteria. The level of inhibition of SYK and JAK was determined using a variety of whole blood assays measuring signaling via receptors for the B-cell antigen, IL2, IL4, IL6, and GM-CSF. Serum markers of tumor burden, including CCL3, CCL4, and other markers of inflammation (β2M and CRP), were also being measured.

[2] = test system: ibrutinib-resistant CLL cells (BTK^C481S, BTKT^316A); experiment: BrdU proliferation assay, CLL cells of ibrutinib-relapsed patients; assay type: cell-based, human; details: three ibrutinib-relapsed patients
MST2 = molecular target: T1, MST2 (Homo sapiens, UniProt Q13188); experiment: Purified kinase assay (Millipore); assay type: biochemical; details: 300 nM ATP
T1 construct: purchased Millipore
Procedure: (§1) Purified Kinase Assays: Performed at Millipore at a fixed concentration of 300 nM ATP. A 10-point concentration curve was used to determine IC (Inhibitory Concentration).

MST1 = molecular target: T2, MST1 (Homo sapiens, UniProt Q13043); experiment: Purified kinase assay (Millipore); assay type: biochemical; details: 300 nM ATP
T2 construct: purchased Millipore
Procedure: as §1

CHK1 = molecular target: T3, CHK1 (Homo sapiens, UniProt O14757); experiment: Purified kinase assay (Millipore); assay type: biochemical; details: 300 nM ATP
T3 construct: purchased Millipore
Procedure: as §1

RSK2 = molecular target: T4, RSK2 (Homo sapiens, UniProt P51812); experiment: Purified kinase assay (Millipore); assay type: biochemical; details: 300 nM ATP
T4 construct: purchased Millipore
Procedure: as §1

GCK = molecular target: T5, GCK (Homo sapiens, UniProt Q12851); experiment: Purified kinase assay (Millipore); assay type: biochemical; details: 300 nM ATP
T5 construct: purchased Millipore
Procedure: as §1

ITK = molecular target: T6, ITK (Homo sapiens, UniProt Q08881); experiment: Purified kinase assay (Millipore); assay type: biochemical; details: 300 nM ATP
T6 construct: purchased Millipore
Procedure: as §1

RET = molecular target: T7, RET (Homo sapiens, UniProt P07949); experiment: Purified kinase assay (Millipore); assay type: biochemical; details: 300 nM ATP
T7 construct: purchased Millipore
Procedure: as §1

MLK1 = molecular target: T8, MLK1 (Homo sapiens, UniProt P80192); experiment: Purified kinase assay (Millipore); assay type: biochemical; details: 300 nM ATP
T8 construct: purchased Millipore
Procedure: as §1

FMS = molecular target: T9, FMS (Homo sapiens, UniProt P07333); experiment: Purified kinase assay (Millipore); assay type: biochemical; details: 300 nM ATP
T9 construct: purchased Millipore
Procedure: as §1

PAR1B-a = molecular target: T10, PAR1B-a (Homo sapiens, UniProt Q7KZI7); experiment: Purified kinase assay (Millipore); assay type: biochemical; details: 300 nM ATP
T10 construct: purchased Millipore
Procedure: as §1

FLT4 = molecular target: T11, FLT4 (Homo sapiens, UniProt P35916); experiment: Purified kinase assay (Millipore); assay type: biochemical; details: 300 nM ATP
T11 construct: purchased Millipore
Procedure: as §1

ARK5 = molecular target: T12, ARK5 (Homo sapiens, UniProt O60285); experiment: Purified kinase assay (Millipore); assay type: biochemical; details: 300 nM ATP
T12 construct: purchased Millipore
Procedure: as §1

[3] = 24 hours, in the presence of ZVAD
[4] = 15 mg/twice daily oral, Table 4, n=28
[5] = 15 mg/twice daily, Table 5, n=43
[6] = 20 mg/twice daily oral, Table 4, n=28
[7] = 20 mg/twice daily, Table 5, n=43
[8] = 45 mg/day oral, PK outlier removed, Table 4, n=28
[9] = 45 mg/twice daily, Table 5, n=43
[10] = 100 mg/day (one patient), Table 5

T6 sequence (Q08881 whole entry): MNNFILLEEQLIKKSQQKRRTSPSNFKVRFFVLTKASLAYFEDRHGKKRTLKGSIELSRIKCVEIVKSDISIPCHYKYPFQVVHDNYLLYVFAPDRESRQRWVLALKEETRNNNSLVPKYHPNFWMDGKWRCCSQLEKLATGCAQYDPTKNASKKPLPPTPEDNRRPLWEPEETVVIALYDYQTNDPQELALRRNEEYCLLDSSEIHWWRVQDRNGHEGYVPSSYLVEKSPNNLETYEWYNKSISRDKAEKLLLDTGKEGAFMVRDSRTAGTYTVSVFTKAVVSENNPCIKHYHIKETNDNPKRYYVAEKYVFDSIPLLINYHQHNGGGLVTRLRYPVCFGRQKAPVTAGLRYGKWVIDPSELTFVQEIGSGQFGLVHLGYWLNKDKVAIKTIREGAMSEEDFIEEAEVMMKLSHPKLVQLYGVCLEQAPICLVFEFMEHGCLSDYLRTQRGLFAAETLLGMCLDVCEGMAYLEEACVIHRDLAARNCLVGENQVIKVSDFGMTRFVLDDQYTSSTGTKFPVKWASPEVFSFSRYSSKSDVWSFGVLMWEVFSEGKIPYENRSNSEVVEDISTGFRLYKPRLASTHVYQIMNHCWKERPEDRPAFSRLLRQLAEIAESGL
T7 sequence (P07949 29-1114): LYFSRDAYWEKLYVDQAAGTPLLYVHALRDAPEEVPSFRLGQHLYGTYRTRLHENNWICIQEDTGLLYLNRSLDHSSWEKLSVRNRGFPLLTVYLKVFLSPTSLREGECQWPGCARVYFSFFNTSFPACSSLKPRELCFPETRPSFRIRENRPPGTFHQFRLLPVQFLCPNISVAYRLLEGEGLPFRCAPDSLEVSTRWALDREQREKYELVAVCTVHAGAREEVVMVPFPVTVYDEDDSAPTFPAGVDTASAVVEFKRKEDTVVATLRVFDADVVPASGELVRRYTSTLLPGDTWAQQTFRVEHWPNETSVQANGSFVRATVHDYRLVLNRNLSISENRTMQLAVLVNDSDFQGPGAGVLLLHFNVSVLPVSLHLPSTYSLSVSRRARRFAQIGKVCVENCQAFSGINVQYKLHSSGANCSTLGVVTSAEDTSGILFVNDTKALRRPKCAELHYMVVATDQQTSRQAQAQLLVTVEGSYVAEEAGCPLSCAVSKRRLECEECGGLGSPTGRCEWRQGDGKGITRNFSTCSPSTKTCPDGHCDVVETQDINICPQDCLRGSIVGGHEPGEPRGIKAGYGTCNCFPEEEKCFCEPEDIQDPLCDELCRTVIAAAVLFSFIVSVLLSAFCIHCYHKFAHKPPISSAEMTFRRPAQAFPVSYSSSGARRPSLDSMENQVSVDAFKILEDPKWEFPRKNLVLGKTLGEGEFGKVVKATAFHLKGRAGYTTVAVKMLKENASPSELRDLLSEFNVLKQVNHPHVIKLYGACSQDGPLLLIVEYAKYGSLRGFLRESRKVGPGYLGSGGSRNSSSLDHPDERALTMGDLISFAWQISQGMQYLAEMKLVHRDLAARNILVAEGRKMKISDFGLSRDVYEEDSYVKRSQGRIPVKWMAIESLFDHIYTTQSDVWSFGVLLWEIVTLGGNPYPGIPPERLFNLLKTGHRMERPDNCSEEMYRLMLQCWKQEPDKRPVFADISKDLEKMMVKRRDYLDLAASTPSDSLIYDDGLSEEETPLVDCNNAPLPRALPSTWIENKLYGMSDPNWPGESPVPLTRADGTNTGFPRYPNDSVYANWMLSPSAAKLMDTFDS
T5 sequence (Q12851 whole entry): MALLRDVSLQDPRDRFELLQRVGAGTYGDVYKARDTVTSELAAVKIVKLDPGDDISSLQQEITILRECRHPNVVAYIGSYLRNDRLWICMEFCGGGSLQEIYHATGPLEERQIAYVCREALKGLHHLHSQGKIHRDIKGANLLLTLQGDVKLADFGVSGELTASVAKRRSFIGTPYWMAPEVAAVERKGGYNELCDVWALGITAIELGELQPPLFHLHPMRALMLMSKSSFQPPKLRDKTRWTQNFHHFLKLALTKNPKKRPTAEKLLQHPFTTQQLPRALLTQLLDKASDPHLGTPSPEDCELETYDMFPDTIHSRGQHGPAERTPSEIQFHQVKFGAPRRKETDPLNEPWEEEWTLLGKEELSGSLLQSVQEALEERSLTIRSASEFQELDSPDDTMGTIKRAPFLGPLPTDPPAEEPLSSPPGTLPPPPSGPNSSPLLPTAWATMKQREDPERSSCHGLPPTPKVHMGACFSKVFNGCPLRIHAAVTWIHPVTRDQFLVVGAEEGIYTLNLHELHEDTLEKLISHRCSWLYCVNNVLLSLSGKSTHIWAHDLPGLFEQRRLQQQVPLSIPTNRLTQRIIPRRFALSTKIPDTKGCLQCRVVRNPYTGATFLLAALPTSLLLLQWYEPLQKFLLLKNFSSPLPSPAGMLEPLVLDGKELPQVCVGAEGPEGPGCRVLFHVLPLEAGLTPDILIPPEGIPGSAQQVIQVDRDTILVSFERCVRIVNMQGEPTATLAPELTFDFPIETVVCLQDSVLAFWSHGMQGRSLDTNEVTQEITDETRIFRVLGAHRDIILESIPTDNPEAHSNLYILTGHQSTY
T3 sequence (O14757 whole entry): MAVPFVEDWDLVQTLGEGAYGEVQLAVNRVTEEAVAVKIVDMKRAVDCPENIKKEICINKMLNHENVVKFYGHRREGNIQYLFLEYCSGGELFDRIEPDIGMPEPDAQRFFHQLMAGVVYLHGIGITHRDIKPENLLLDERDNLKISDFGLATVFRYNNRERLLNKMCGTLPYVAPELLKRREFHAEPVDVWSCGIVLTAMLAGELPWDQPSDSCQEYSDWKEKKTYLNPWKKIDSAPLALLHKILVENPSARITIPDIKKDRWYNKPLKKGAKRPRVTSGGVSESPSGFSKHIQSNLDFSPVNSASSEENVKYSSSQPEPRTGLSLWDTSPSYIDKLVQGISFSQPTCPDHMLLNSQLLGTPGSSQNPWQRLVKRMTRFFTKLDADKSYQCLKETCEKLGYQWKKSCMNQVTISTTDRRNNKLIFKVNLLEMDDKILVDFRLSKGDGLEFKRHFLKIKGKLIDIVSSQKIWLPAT
T12 sequence (O60285 whole entry): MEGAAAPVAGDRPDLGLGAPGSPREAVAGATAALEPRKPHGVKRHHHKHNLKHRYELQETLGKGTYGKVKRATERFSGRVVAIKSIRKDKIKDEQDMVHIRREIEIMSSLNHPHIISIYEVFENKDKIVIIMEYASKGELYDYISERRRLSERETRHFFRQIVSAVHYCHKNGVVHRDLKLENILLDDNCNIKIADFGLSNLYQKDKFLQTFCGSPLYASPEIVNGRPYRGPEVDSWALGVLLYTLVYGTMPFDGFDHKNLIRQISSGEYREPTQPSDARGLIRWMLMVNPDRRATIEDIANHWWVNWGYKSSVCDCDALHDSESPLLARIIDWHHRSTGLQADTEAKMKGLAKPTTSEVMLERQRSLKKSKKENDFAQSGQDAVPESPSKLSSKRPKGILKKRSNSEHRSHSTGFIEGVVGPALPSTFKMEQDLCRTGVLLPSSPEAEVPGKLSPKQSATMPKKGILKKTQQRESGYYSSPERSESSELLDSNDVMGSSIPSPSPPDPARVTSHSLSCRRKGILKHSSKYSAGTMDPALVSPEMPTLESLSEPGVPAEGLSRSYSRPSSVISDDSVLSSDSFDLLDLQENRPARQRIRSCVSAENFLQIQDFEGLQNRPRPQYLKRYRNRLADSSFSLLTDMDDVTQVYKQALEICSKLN
T2 sequence (Q13043 whole entry): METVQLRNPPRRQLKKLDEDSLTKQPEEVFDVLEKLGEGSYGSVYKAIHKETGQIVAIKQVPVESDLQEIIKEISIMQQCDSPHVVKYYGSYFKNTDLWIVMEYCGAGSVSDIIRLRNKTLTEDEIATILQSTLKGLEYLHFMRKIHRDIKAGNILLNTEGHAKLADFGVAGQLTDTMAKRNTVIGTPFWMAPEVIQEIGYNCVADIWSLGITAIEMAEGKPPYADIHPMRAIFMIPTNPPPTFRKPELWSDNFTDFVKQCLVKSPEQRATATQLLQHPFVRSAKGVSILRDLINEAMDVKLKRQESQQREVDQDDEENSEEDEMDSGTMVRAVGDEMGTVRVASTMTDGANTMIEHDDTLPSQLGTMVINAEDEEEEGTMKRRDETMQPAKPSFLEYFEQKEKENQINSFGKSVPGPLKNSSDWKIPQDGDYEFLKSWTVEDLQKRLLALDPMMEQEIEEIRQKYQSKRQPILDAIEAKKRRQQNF
T10 sequence (Q7KZI7 1-725 isoform Q7KZI7-4): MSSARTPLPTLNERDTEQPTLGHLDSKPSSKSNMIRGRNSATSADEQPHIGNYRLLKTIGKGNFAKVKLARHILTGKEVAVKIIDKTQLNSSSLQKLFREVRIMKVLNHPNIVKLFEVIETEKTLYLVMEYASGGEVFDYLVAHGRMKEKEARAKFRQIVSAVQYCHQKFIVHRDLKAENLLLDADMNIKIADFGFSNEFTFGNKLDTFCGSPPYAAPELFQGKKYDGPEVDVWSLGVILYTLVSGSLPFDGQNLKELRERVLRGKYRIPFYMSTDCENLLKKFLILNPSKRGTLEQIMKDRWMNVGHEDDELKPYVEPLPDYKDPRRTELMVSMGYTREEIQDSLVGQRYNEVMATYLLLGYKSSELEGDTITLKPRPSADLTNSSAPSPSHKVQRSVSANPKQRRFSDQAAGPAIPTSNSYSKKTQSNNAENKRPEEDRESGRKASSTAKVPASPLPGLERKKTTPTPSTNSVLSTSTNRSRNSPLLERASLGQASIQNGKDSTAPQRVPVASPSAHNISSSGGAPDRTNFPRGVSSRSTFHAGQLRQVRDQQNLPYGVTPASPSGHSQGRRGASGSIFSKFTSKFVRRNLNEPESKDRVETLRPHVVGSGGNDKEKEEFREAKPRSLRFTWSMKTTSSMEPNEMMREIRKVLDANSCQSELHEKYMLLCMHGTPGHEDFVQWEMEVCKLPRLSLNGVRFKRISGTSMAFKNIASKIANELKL

Compound: CCS(=O)(=O)N1CCN(c2ccc(Nc3ncc(C(N)=O)c(NC4CC4)n3)cc2)CC1 [cerdulatinib, 4-(cyclopropylamino)-2-(4-(4-(ethylsulfonyl)piperazin-1-yl)phenylamino)pyrimidine-5-carboxamide]
- IC50 (PKC): > 4000 nM
- IC50 (TSSK): 14 nM
- apoptosis in U-CLL compared to M-CLL and in high versus low CD49d or ZAP70 expression (primary CLL cells): significantly greater apoptosis
- apoptosis with or without IL-4/CD40L support (primary CLL cells): induced apoptosis in the presence or absence of IL-4/CD40L support
- cleavage/activation of caspase 3 and 85 kDa PARP sub-fragment (primary CLL cells): induce cleavage/activation
- apoptosis of CLL cells (primary CLL cells; 24 patients, 24, 48 and 72 hours): induced apoptosis in a concentration and time dependent manner
- anti-apoptotic protein MCL1 (primary CLL cells; [3]): decreased
- levels of pro-apoptotic protein NOXA (primary CLL cells; [3]): increased
- AUC_tau ([1]; 15 mg/day oral, Table 4, n=28): 4.5 ± 0.8 µM·h
- SS Cave ([1]; 15 mg/day oral, Table 4, n=28): 190 ± 30 nM
- SS Cmin ([1]; 15 mg/day oral, Table 4, n=28): 120 ± 40 nM
- T1/2 ([1]; 15 mg/day oral, Table 4, n=28): 11.5 ± 3.9 h
- AUC_tau ([1]; 15 mg/day, Table 5, n=43): 4.5 ± 0.8 µM·h
- SS Cave ([1]; 15 mg/day, Table 5, n=43): 190 ± 30 nM
- SS Cmin ([1]; 15 mg/day, Table 5, n=43): 120 ± 40 nM
- T1/2 ([1]; 15 mg/day, Table 5, n=43): 11.5 ± 3.9 h
- SS Cave [1, 4]: 390 ± 110 nM
- SS Cmin [1, 4]: 290 ± 110 nM
- SS Cave [1, 5]: 390 ± 110 nM
- SS Cmin [1, 5]: 290 ± 110 nM
- SS Cave [1, 6]: 520 ± 90 nM
- SS Cmin [1, 6]: 380 ± 20 nM
- SS Cave [1, 7]: 520 ± 90 nM
- SS Cmin [1, 7]: 380 ± 20 nM
- SS Cave ([1]; 30 mg/day oral, Table 4, n=28): 310 ± 120 nM
- SS Cmin ([1]; 30 mg/day oral, Table 4, n=28): 210 ± 120 nM
- SS Cave ([1]; 30 mg/day, Table 5, n=43): 310 ± 120 nM
- SS Cmin ([1]; 30 mg/day, Table 5, n=43): 210 ± 120 nM
- steady-state Cmin exposure at plateau ([1]; 40 mg to 100 mg oral once daily): about 0.7 μM
- SS Cave ([1]; 40 mg/day oral, Table 4, n=28): 1140 ± 30 nM
- SS Cmin ([1]; 40 mg/day oral, Table 4, n=28): 870 ± 70 nM
- SS Cave ([1]; 40 mg/day, Table 5, n=43): 1140 ± 30 nM
- SS Cmin ([1]; 40 mg/day, Table 5, n=43): 870 ± 70 nM
- SS Cmin ([1]; 45 mg BID dose): about 1.5 μM
- Cave ([1]; 45 mg BID, n=20): 1400 ± 700 nM
- Cmin ([1]; 45 mg BID, n=20): 1270 ± 600 nM
- AUC_tau [1, 8]: 26.6 ± 13.9 µM·h
- SS Cave [1, 8]: 1110 ± 600 nM
- SS Cmin [1, 8]: 820 ± 600 nM
- AUC_tau ([1]; 45 mg/day, Table 5, n=43): 26.6 ± 13.9 µM·h
- SS Cave ([1]; 45 mg/day, Table 5, n=43): 1110 ± 600 nM
- SS Cmin ([1]; 45 mg/day, Table 5, n=43): 820 ± 600 nM
- Cmax ([1]; 45 mg/day, Table 5, n=43, read-out: SS Cmax): 1690 ± 600 nM
- SS Cave [1, 9]: 1500 ± 450 nM
- SS Cmin [1, 9]: 1480 ± 330 nM
- SS Cave ([1]; 50 mg/day oral, Table 4, n=28): 1310 ± 410 nM
- SS Cmin ([1]; 50 mg/day oral, Table 4, n=28): 900 ± 140 nM
- SS Cave ([1]; 50 mg/day, Table 5, n=43): 990 ± 620 nM
- SS Cmin ([1]; 50 mg/day, Table 5, n=43): 790 ± 370 nM
- Cmax ([1]; 50 mg/day, Table 5, n=43, read-out: SS Cmax): 1570 ± 940 nM
- steady state Cmin ([1]; 65 mg dose): approximately 1 μM
- AUC_tau ([1]; 65 mg/day, Table 5, n=43): 24.2 ± 0.7 µM·h
- SS Cave ([1]; 65 mg/day, Table 5, n=43): 1010 ± 30 nM
- SS Cmin ([1]; 65 mg/day, Table 5, n=43): 760 ± 40 nM
- Cmax ([1]; 65 mg/day, Table 5, n=43, read-out: SS Cmax): 1670 ± 90 nM
- SS Cave [1, 10]: 680 nM
- SS Cmin [1, 10]: 370 nM
- average steady state (SS) Cave ([1]; 40-100 mg QD doses): 1070 ± 440 nM
- average steady state (SS) Cmin ([1]; 40-100 mg QD doses, plateau): 770 ± 410 nM
- Cmax ([1]; human, plasma, oral, 40 mg QD, read-out: steady-state concentrations Cmin to Cmax): 1000 to 2000 nM
- plasma concentrations safely achieved in cancer patients ([1]; once daily oral dosing): above 2 μM
- steady-state Cmin ([1]; once daily oral dosing, cancer patients): ~1000 nM
- IC50 (SYK): 120 nM
- inhibition of SYK and JAK at SS Cmin in peripheral blood assays (SYK and JAK signaling; 45 mg BID dose): complete inhibition
- inhibition at 40 mg (SYK and JAK signaling; Homo sapiens, Lymphocyte, 672 h, day 28 of cycle 1, plasma about 0.6 to 1 μM (Cmin of 40 mg dose), read-out: saturating inhibition of SYK and JAK in circulating lymphocytes): 80 to 90%
- inhibition of SYK and JAK in peripheral whole blood assays (SYK and JAK signaling; exposures of the 30 mg once daily dose): approximately 50%
- maximal inhibition of SYK/JAK signaling (SYK and JAK signaling; in vivo): greater than 80%
- inhibition of SYK and JAK safely achieved (SYK and JAK signaling; oral dosing in patients, multiple cycles of therapy): > 90%
- BrdU^+ cell populations (proliferation) [2]: almost completely blocked
- IC50 (MST2): 15 nM
- IC50 (MST1): 4 nM
- IC50 (CHK1): 42 nM
- IC50 (RSK2): 20 nM
- IC50 (GCK): 18 nM
- IC50 (ITK): 194 nM
- IC50 (RET): 105 nM
- IC50 (MLK1): 5 nM
- IC50 (FMS): 5 nM
- IC50 (PAR1B-a): 13 nM
- IC50 (FLT4): 51 nM
- IC50 (ARK5): 4 nM
